From ChEMBL document CHEMBL5096165, “Histone deacetylase 2: A potential therapeutic target for cancer and neurodegenerative disorders” (Eur J Med Chem, 2021)

Tests used:
Histone deacetylase 9 = Histone deacetylase 9 (Homo sapiens, UniProt Q9UKV0)
Description: Inhibition of HDAC9 (unknown origin)

[1] = molecular target: T1, Polyamine deacetylase HDAC10 (Homo sapiens, UniProt Q969S8)
T1 sequence (Q969S8 whole entry): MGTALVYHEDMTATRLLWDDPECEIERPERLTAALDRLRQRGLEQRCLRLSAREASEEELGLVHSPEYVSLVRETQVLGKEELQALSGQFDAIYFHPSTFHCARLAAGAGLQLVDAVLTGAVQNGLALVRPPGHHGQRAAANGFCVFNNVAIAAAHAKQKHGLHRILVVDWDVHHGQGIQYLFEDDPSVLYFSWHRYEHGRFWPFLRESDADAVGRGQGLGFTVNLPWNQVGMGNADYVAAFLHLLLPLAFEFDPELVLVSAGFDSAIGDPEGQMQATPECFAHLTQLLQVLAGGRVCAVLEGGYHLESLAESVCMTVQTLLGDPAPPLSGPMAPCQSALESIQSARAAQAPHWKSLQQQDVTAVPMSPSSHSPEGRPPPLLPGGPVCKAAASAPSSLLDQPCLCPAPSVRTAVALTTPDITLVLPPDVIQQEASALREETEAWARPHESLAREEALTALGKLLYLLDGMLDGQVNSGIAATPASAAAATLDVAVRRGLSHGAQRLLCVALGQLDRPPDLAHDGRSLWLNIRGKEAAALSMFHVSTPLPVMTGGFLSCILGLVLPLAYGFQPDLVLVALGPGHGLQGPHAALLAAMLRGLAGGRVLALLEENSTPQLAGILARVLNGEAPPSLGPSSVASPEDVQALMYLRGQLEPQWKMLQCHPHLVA
Description: Inhibition of HDAC10 (unknown origin)

Histone deacetylase 5 = Histone deacetylase 5 (Homo sapiens, UniProt Q9UQL6)
Sequence of Histone deacetylase 5 (Q9UQL6 whole entry): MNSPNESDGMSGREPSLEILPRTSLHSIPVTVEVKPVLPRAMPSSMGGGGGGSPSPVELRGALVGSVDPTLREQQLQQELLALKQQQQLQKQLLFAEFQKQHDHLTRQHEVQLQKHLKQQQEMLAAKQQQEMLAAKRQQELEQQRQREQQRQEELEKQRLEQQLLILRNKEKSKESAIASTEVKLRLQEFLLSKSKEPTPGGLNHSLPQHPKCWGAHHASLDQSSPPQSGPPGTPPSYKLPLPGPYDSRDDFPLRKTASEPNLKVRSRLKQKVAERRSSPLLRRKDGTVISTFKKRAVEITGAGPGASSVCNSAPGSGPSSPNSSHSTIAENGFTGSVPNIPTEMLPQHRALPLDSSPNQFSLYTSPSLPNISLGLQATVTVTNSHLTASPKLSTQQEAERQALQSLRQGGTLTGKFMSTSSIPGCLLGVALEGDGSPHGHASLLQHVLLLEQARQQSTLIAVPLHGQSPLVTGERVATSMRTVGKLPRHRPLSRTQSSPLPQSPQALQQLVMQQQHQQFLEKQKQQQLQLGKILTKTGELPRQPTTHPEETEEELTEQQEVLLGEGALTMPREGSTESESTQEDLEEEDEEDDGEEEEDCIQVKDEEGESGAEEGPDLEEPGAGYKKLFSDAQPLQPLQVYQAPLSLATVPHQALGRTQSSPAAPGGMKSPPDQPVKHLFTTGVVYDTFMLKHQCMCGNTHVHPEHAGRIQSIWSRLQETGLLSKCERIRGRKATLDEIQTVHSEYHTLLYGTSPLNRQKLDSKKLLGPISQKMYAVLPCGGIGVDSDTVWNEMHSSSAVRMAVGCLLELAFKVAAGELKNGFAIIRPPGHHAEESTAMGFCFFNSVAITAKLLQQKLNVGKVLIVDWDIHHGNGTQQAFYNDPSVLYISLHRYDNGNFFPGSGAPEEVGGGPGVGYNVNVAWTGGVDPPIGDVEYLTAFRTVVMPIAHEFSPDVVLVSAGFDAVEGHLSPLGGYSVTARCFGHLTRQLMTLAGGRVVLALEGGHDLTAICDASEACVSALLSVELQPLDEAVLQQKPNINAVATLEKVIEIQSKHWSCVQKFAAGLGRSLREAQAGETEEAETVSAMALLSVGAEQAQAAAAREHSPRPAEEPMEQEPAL
Description: Inhibition of HDAC5 (unknown origin)

Sequence of Histone deacetylase 9 (Q9UKV0 whole entry): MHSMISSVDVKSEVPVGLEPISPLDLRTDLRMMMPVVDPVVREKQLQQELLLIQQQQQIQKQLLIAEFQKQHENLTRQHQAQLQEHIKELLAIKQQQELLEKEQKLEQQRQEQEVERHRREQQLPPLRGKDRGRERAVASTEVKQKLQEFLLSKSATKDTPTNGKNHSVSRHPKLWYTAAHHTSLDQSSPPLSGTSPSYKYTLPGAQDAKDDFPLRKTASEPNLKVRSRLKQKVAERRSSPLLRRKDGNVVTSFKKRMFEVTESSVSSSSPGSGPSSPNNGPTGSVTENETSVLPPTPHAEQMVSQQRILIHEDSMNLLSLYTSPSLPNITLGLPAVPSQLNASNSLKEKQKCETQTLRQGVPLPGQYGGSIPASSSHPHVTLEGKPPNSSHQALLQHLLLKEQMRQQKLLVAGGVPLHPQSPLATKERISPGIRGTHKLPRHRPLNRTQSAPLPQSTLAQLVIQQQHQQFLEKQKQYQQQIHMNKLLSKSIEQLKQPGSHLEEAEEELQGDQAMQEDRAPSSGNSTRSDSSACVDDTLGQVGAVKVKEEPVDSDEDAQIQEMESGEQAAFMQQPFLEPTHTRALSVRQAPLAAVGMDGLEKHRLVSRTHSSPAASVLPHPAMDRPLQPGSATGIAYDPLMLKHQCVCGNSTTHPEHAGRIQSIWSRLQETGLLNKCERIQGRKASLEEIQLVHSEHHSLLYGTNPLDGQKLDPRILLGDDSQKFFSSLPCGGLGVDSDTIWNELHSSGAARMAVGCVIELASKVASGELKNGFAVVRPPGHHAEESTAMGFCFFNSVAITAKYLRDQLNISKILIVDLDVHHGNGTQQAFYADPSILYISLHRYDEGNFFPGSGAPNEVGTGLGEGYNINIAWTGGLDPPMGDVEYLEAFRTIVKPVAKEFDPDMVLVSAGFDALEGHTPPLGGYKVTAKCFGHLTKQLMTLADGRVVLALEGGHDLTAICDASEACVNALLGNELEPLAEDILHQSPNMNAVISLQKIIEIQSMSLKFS

| SMILES | IC50 (Histone deacetylase 9) [µM] | IC50 [1] [µM] | IC50 (Histone deacetylase 5) [µM] |
| --- | --- | --- | --- |
| Cn1cc(-c2ccc(S(=O)(=O)n3ccc(/C=C/C(=O)Nc4ccccc4N)c3)cc2)cn1 [DOMATINOSTAT] | 50 | 21 |  |
| Cn1cc(CNCC2CCN(c3ncc(C(=O)NO)cn3)CC2)c2ccccc21 [QUISINOSTAT] |  | 0.00046 | 0.00369 |
